# Source: PubChem BioAssay (NCI)
#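 Interpolation was linear, between the two tested concentrations surrounding the appropriate level; five concentrations were tested over 48 hours in 96-well plates. GI50 marks 50% less growth. TGI: concentration producing complete growth inhibition.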
# Columns and labels:
# Test in all cases: NCI-60 cell line screen, 48 h
# [1] = system: MOLT-4 leukemia
# [2] = system: SK-MEL-5 melanoma
# [3] = system: NCI-H226 lung
# [4] = system: LOX IMVI melanoma
# [5] = system: SF-539 CNS
# [6] = system: TK-10 renal
# [7] = system: COLO 205 colon
# [8] = system: DU-145 prostate
# [9] = system: IGROV1 ovarian
# [10] = system: SN12C renal
# [11] = system: M14 melanoma
# [12] = system: SK-MEL-28 melanoma
# [13] = system: OVCAR-3 ovarian
# [14] = system: SR leukemia
# [15] = system: U251 CNS
# [16] = system: MCF7 breast
# [17] = system: HCT-15 colon
# [18] = system: T-47D breast
# [19] = system: PC-3 prostate
# [20] = system: SNB-75 CNS
# [21] = system: KM12 colon
# [22] = system: CAKI-1 renal
# [23] = system: CCRF-CEM leukemia
# [24] = system: MDA-MB-468 breast
# [25] = system: MALME-3M melanoma
# [26] = system: RPMI-8226 leukemia
# [27] = system: SW-620 colon
# [28] = system: HCC-2998 colon
# [29] = system: SF-268 CNS
# [30] = system: K-562 leukemia
# [31] = system: HS 578T breast
# [32] = system: RXF 393 renal
# [33] = system: OVCAR-8 ovarian
# [34] = system: OVCAR-5 ovarian
# [35] = system: HCT-116 colon
# [36] = system: UACC-257 melanoma
# [37] = system: 786-0 renal
# [38] = system: NCI-H460 lung
# [39] = system: OVCAR-4 ovarian
# [40] = system: SF-295 CNS
# [41] = system: EKVX NSCLC
# [42] = system: SNB-19 CNS
# [43] = system: UACC-62 melanoma
# [44] = system: MDA-MB-435
# [45] = system: UO-31 renal
# [46] = system: HL-60(TB) leukemia
# [47] = system: HOP-92 NSCLC
# [48] = system: SK-OV-3 ovarian
# [49] = system: SK-MEL-2 melanoma
# [50] = system: A498 renal
# [51] = system: NCI-H522 lung
# [52] = system: HT29 colon
# [53] = system: HOP-62 NSCLC
# [54] = system: NCI-H23 lung
# [55] = system: MDA-MB-231 breast
# [56] = system: BT-549 breast
# [57] = system: ACHN renal
# [58] = system: A549 NSCLC
smiles,measurement,setting,value
COc1cccc2nc(Nc3ccc(F)c(NC(=O)c4ccc(CN5CCN(C)CC5)c(C(F)(F)F)c4)c3)ccc12,GI50,[1],4.1 µM
same,TGI,[1],18.4 µM
same,GI50,[2],15.5 µM
same,TGI,[2],28.9 µM
same,GI50,[3],11.1 µM
same,TGI,[3],24.7 µM
same,GI50,[4],13.8 µM
same,TGI,[4],27.3 µM
same,GI50,[5],12.4 µM
same,TGI,[5],25.5 µM
same,GI50,[6],16.4 µM
same,TGI,[6],30.2 µM
same,GI50,[7],17.2 µM
same,TGI,[7],31.9 µM
same,GI50,[8],12.9 µM
same,TGI,[8],25.6 µM
same,GI50,[9],14.5 µM
same,TGI,[9],29 µM
same,GI50,[10],13.4 µM
same,TGI,[10],27.4 µM
same,GI50,[11],13.1 µM
same,TGI,[11],27.5 µM
same,GI50,[12],15.3 µM
same,TGI,[12],30.3 µM
same,GI50,[13],14.4 µM
same,TGI,[13],28 µM
same,GI50,[14],9.84 µM
same,TGI,[14],28 µM
same,GI50,[15],13.4 µM
same,TGI,[15],26.1 µM
same,GI50,[16],12.3 µM
same,TGI,[16],27.5 µM
same,GI50,[17],13.4 µM
same,TGI,[17],28.4 µM
same,GI50,[18],14.8 µM
same,TGI,[18],31.4 µM
same,GI50,[19],12 µM
same,TGI,[19],28.7 µM
same,GI50,[20],9.08 µM
same,TGI,[20],21.4 µM
same,GI50,[21],15.4 µM
same,TGI,[21],29.6 µM
same,GI50,[22],11.5 µM
same,TGI,[22],24.2 µM
same,GI50,[23],9.71 µM
same,TGI,[23],25.6 µM
same,GI50,[24],4.79 µM
same,TGI,[24],18.1 µM
same,GI50,[25],11.7 µM
same,TGI,[25],24.1 µM
same,GI50,[26],9.3 µM
same,TGI,[26],27.1 µM
same,GI50,[27],16.9 µM
same,TGI,[27],30.9 µM
same,GI50,[28],18.8 µM
same,TGI,[28],33.2 µM
same,GI50,[29],11.1 µM
same,TGI,[29],27.1 µM
same,GI50,[30],3.59 µM
same,TGI,[30],20.9 µM
same,GI50,[31],14.1 µM
same,TGI,[31],39.9 µM
same,GI50,[32],3.71 µM
same,TGI,[32],17.2 µM
same,GI50,[33],15.8 µM
same,TGI,[33],29.8 µM
same,GI50,[34],16.1 µM
same,TGI,[34],30.4 µM
same,GI50,[35],8.75 µM
same,TGI,[35],22.6 µM
same,GI50,[36],16.3 µM
same,TGI,[36],30.1 µM
same,GI50,[37],12.5 µM
same,TGI,[37],26.4 µM
same,GI50,[38],15.9 µM
same,TGI,[38],33.5 µM
same,GI50,[39],13.9 µM
same,TGI,[39],28.9 µM
same,GI50,[40],17.1 µM
same,TGI,[40],32.2 µM
same,GI50,[41],14.7 µM
same,TGI,[41],29.1 µM
same,GI50,[42],17.2 µM
same,TGI,[42],32.8 µM
same,GI50,[43],16.2 µM
same,TGI,[43],30.9 µM
same,GI50,[44],15.1 µM
same,TGI,[44],28.3 µM
same,GI50,[45],12.6 µM
same,TGI,[45],25.5 µM
same,GI50,[46],6.52 µM
same,TGI,[46],25.4 µM
same,GI50,[47],6.64 µM
same,TGI,[47],21.6 µM
same,GI50,[48],15.7 µM
same,TGI,[48],29.8 µM
same,GI50,[49],16.1 µM
same,TGI,[49],29.9 µM
same,GI50,[50],17 µM
same,TGI,[50],32.2 µM
same,GI50,[51],16 µM
same,TGI,[51],30.2 µM
same,GI50,[52],3.61 µM
same,TGI,[52],13.9 µM
same,GI50,[53],14.5 µM
same,TGI,[53],28 µM
same,GI50,[54],15.5 µM
same,TGI,[54],29.6 µM
same,GI50,[55],12.1 µM
same,TGI,[55],24.9 µM
same,GI50,[56],10.5 µM
same,TGI,[56],22.6 µM
same,GI50,[57],16.5 µM
same,TGI,[57],34.9 µM
same,GI50,[58],12.2 µM
same,TGI,[58],24.6 µM
